Patent US10618901B2 (GlaxoSmithKline Intellectual Property Development Limited, priority 2014, dated 2020)

Target: T1, LRRK2 Ser935 phosphorylation in SH-SY5Y cells over-expressing recombinant full length LRRK2 (Homo sapiens, UniProt Q5S007)
T1 construct: A BacMam virus expressing full length recombinant LRRK2 was purchased from Invitrogen; host or cells: SH-SY5Y (BacMam transduction)
Experiment: Recombinant cellular LRRK2 AlphaScreen assay
Assay type: cell-based
Details: read-out: pIC50 in the recombinant cellular LRRK2 alphaScreen assay (converted)
Description: Recombinant Cellular LRRK2 AlphaScreen Assay
To determine the activity of compounds against LRRK2 kinase activity in cells, the observed LRRK2 kinase-dependent modulation of LRRK2 Ser 935 phosphorylation (Dzamko et al., 2010, Biochem. J. 430: 405-413) was utilized to develop a quantitative 384 well plate-based immunoassay of LRRK2 Ser935 phosphorylation in the human neuroblastoma cell line SH-SY5Y, engineered to over-express recombinant full length LRRK2 protein.
A BacMam virus expressing full length recombinant LRRK2 was purchased from Invitrogen and amplified by inoculation of SF-9 cells at MOI 0.3 for 4-5 days in Sf-900 III SFM medium supplemented with 3% fetal bovine serum. Infected cell cultures were then centrifuged at 2000 g for 20 minutes, viral supernatant titer determined by anti-gp64 plaque assay and stored at 4° C.
Affinity-purified anti-phospho LRRK2 Ser935 sheep polyclonal antibody (Dzamko et al., 2010, Biochem. J. 430: 405-413) was biotinylated by standard methods (PerkinElmer). Anti-LRRK2 rabbit polyclonal antibody was purchased from Novus Biologicals. AlphaScreen Protein A IgG Kit (including acceptor and donor beads) was purchased from Perkin Elmer.
SH-SY5Y cells were grown in DMEM/F12 medium with 10% dialysed fetal bovine serum and harvested by treatment with 0.5% trypsin-EDTA for 5 minutes at 37° C. followed by centrifugation at 1000 rpm for 4 minutes. The cell pellet was resuspended in Opti-MEM reduced serum media (Invitrogen) at 200,000 cells/ml and mixed with the BacMam LRRK2 virus at M01=50. 50 μl cell solutions were then dispensed to each well of a 384-well plate and incubated at 37° C., 5% CO2 for 24 hours.
Serial dilutions of test compounds were prepared in Opti-MEM reduced serum media (Invitrogen) and 5.6 ul transferred from compound plate to cell assay plate to achieve a top final assay concentration of 10 uM. DMSO was used in certain wells as controls. Cells were incubated at 37° C., 5% CO2 for 60 minutes. The medium was then removed and cells lysed by addition of 20 ul cell lysis buffer (Cell Signaling Technology) and incubation at 4° C. for 20 minutes. 10 ul of antibody/acceptor bead mix [(1/1000 biotinylated-pS935 LRRK2 antibody, 1/1000 total-LRRK2 antibody, 1/100 Acceptor beads in AlphaScreen detection buffer (25 mM Hepes (pH 7.4), 0.5% Triton X-100, 1 mg/ml Dextran 500 and 0.1% BSA)] was then added to each well and plates incubated for 2 hours at ambient temperature in the dark. 10 μl of donor beads solution (1/33.3 donor beads in AlphaScreen detection buffer) was then added to each well. Following incubation for a further 2 hours at ambient temperature in the dark, plates were read on an EnVision™ plate reader at emission 520-620 nm with excitation 680 nm. Dose response curve data was based on sigmoidal dose-response model.

T1 sequence (Q5S007 whole entry): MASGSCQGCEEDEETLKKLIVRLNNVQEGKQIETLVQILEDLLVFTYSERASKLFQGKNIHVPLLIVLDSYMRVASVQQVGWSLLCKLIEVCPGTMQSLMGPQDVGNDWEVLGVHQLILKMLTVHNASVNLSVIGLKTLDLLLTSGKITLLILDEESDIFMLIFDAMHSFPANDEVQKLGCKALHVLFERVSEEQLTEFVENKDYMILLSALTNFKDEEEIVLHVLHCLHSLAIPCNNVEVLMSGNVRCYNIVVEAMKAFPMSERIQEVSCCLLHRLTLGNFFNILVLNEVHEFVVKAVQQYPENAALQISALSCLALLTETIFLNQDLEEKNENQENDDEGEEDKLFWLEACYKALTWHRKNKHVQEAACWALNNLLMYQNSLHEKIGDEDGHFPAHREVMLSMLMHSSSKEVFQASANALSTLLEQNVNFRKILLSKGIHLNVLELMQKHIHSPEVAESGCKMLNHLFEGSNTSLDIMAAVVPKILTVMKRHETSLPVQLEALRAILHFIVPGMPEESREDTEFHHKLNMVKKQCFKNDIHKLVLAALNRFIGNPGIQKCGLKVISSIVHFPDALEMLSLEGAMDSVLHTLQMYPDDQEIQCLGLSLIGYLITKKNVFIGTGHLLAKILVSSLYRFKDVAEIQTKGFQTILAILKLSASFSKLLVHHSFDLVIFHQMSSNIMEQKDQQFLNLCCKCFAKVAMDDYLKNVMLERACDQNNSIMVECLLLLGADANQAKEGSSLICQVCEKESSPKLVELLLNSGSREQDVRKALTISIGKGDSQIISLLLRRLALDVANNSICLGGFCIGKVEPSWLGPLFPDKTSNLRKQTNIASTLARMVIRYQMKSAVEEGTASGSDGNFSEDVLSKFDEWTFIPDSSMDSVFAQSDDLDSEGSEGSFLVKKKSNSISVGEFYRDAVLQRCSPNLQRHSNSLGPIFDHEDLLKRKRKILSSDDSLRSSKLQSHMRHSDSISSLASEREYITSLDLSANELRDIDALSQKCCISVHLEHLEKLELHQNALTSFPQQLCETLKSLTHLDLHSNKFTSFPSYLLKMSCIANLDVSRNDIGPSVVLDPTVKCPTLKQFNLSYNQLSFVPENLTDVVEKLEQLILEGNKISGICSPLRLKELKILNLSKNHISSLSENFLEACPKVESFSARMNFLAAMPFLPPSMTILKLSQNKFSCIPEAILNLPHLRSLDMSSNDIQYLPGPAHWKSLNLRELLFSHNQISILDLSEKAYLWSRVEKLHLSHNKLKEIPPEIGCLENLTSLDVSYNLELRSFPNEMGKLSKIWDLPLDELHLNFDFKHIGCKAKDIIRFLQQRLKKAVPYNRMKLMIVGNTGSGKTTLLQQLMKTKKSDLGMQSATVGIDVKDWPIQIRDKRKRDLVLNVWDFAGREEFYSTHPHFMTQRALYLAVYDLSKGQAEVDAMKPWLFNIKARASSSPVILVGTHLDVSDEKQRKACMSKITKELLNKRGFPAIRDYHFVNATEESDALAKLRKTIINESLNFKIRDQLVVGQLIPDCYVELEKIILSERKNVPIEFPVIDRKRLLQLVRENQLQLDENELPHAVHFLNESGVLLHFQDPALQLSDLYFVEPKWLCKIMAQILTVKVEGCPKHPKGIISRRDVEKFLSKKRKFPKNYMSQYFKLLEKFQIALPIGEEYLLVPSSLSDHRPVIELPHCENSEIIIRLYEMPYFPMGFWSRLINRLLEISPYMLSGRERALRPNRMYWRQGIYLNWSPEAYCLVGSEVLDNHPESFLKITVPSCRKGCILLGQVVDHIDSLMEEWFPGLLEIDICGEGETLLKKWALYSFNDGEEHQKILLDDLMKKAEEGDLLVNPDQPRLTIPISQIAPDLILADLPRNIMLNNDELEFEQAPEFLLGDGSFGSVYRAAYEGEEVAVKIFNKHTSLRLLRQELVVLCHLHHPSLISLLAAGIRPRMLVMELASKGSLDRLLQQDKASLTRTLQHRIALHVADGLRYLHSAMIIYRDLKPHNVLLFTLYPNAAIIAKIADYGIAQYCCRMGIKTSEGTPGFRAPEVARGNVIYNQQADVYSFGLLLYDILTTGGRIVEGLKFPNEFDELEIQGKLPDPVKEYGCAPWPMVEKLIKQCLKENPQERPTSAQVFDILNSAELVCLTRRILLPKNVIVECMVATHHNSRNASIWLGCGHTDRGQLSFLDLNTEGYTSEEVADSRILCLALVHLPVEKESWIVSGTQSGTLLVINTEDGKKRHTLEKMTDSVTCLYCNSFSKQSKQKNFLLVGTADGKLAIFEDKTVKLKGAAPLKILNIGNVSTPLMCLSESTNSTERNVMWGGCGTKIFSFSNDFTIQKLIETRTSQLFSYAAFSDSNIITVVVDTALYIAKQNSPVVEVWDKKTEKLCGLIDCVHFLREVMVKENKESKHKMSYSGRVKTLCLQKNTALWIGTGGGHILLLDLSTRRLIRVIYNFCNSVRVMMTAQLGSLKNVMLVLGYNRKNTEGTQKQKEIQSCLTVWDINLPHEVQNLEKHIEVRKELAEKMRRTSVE

IC50 | SMILES
≤ 100 nM | CCOc1nc(Nc2cnn(CC3COC3)c2C)nc2[nH]ccc12 [Example E29, 4-ethoxy-N-(5-methyl-1-(oxetan-3-yl-methyl)-1H-pyrazol-4-yl)-7H-pyrrolo-[2,3-d]pyrimidin-2-amine]
≤ 100 nM | CCOc1nc(Nc2cnn([C@H]3CCN(CC(F)F)C3)c2C)nc2[nH]ccc12 [Example E87, (S)—N-(1-(1-(2,2-difluoroethyl)pyrrolidin-3-yl)-5-methyl-1H-pyrazol-4-yl)-4-ethoxy-7H-pyrrolo[2,3-d]pyrimidin-2-amine]
≤ 100 nM | CCOc1nc(Nc2cnn([C@@H]3CCCN(C4COC4)C3)c2C)nc2[nH]ccc12 [Example E135, (R)-4-ethoxy-N-(5-methyl-1-(1-(oxetan-3-yl)piperidin-3-yl)-1H-pyrazol-4-yl)-7H-pyrrolo [2,3-d]pyrimidin-2-amine]
≤ 100 nM | CCOc1nc(Nc2cnn([C@H]3CCN[C@@H](C(F)F)C3)c2C)nc2[nH]ccc12 [Example E95, N-(1-((2R,4S)-2-(difluoromethyl)piperidin-4-yl)-5-methyl-1H-pyrazol-4-yl)-4-ethoxy-7H-pyrrolo[2,3-d]pyrimidin-2-amine]
≤ 100 nM | CCOc1nc(Nc2cnn(C3CC(N4CCOCC4)CCC3(F)F)c2Cl)nc2[nH]ccc12 (racemic) [Example E145, (±)-trans-N-(5-chloro-1-(2,2-difluoro-5-morpholinocyclohexyl)-1H-pyrazol-4-yl)-4-ethoxy-7H-pyrrolo[2,3-d]pyrimidin-2-amine]
≤ 100 nM | CCOc1nc(Nc2cnn(C3CCN(C)CC3)c2C)nc2[nH]ccc12 [Example E18, 4-ethoxy-N-(5-methyl-1-(1-methylpiperidin-4-yl)-1H-pyrazol-4-yl)-7H-pyrrolo-[2,3-d]-pyrimidin-2-amine]
≤ 100 nM | CCOc1nc(Nc2cnn(C3CCN(C4COC4)CC3(F)F)c2C)nc2[nH]ccc12 (single isomer, unassigned) [Example E131, N-(1-(3,3-difluoro-1-(oxetan-3-yl)piperidin-4-yl)-5-methyl-1H-pyrazol-4-yl)-4-ethoxy-7H-pyrrolo[2,3-d]pyrimidin-2-amine]
≤ 100 nM | CCOc1nc(Nc2cnn(CCN3CCO[C@@H](C)C3)c2C)nc2[nH]ccc12 [Example E84, (S)-4-ethoxy-N-(5-methyl-1-(2-(2-methylmorpholino)ethyl)-1H-pyrazol-4-yl)-7H-pyrrolo [2,3-d]pyrimidin-2-amine]
≤ 100 nM | CCOc1nc(Nc2cnn(C3CCC(N4CCOCC4)CC3)c2Cl)nc2[nH]ccc12 (stereo not drawn) [Example E149, N-(5-chloro-1-(4-morpholinocyclohexyl)-1H-pyrazol-4-yl)-4-ethoxy-7H-pyrrolo[2,3-d] pyrimidin-2-amine]
≤ 100 nM | CCOc1nc(Nc2cnn(C3CNCCO3)c2Cl)nc2[nH]ccc12 (single isomer, unassigned) [Example E143, N-(5-chloro-1-(morpholin-2-yl)-1H-pyrazol-4-yl)-4-ethoxy-7H-pyrrolo[2,3-d]pyrimidin-2-amine]
≤ 100 nM | CCOc1nc(Nc2cnn(CCN3CC[C@@H](F)C3)c2C)nc2[nH]ccc12 [Example E63, (R)-4-ethoxy-N-(1-(2-(3-fluoropyrrolidin-1-yl)-ethyl)-5-methyl-1H-pyrazol-4-yl)-7H-pyrrolo[2,3-d]pyrimidin-2-amine]
≤ 100 nM | CCOc1nc(Nc2cnn(CCN3CC[C@H](F)C3)c2C)nc2[nH]ccc12 [Example E64, (S)-4-ethoxy-N-(1-(2-(3-fluoropyrrolidin-1-yl)ethyl)-5-methyl-1H-pyrazol-4-yl)-7H-pyrrolo[2,3-d]pyrimidin-2-amine]
≤ 100 nM | CCOc1nc(Nc2cnn([C@@H]3C[C@H](F)CN(C4COC4)C3)c2Cl)nc2[nH]ccc12 [Example E151, N-(5-chloro-1-((3R,5S)-5-fluoro-1-(oxetan-3-yl)piperidin-3-yl)-1H-pyrazol-4-yl)-4-ethoxy-7H-pyrrolo[2,3-d]pyrimidin-2-amine]
≤ 100 nM | CCOc1nc(Nc2cnn(C3CCOCC3)c2Cl)nc2[nH]ccc12 [Example E22, N-(5-chloro-1-(tetrahydro-2H-pyran-4-yl)-1H-pyrazol-4-yl)-4-ethoxy-7H-pyrrolo-[2,3-d]-pyrimidin-2-amine]
≤ 100 nM | CCOc1nc(Nc2cnn(CCF)c2C)nc2[nH]ccc12 [Example E26, 4-ethoxy-N-(1-(2-fluoroethyl)-5-methyl-1H-pyrazol-4-yl)-7H-pyrrolo-[2,3-d]-pyrimidin-2-amine]
≤ 100 nM | CCOc1nc(Nc2cnn(CCN3CCO[C@@H](C(F)F)C3)c2C)nc2[nH]ccc12 [Example E99, (R)—N-(1-(2-(2-(difluoromethyl)morpholino)ethyl)-5-methyl-1H-pyrazol-4-yl)-4-ethoxy-7H-pyrrolo[2,3-d]pyrimidin-2-amine]
≤ 100 nM | CCOc1nc(Nc2cnn(C3CCN(C4COC4)CC3F)c2C)nc2[nH]ccc12 (single isomer, unassigned) [Example E102, cis-4-ethoxy-N-(1-(3-fluoro-1-(oxetan-3-yl)piperidin-4-yl)-5-methyl-1H-pyrazol-4-yl)-7H-pyrrolo[2,3-d]pyrimidin-2-amine]
≤ 100 nM | CCOc1nc(Nc2cnn(C3CCN(C4COC4)CC3)c2C)nc2[nH]ccc12 [Example E53, 4-ethoxy-N-(5-methyl-1-(1-(oxetan-3-yl)-piperidin-4-yl)-1H-pyrazol-4-yl)-7H-pyrrolo-[2,3-d]-pyrimidin-2-amine]
